This note sets out measurements from ChEMBL document CHEMBL1201862, “PubChem BioAssay data set” (2004).

Test systems include A549; ACHN; HCT-15; IGROV-1; M14; NCI-H460; NCI-H522; OVCAR-3; OVCAR-8; RPMI-8226; SF-539; SK-MEL-5; SNB-75; EKVX; HT-29; NCI-H23.
What all share (assay): NCI tumour cell line growth inhibition, 48 h

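The compound was tested at five concentrations on cells cultured in 96-well plates, with a 48-hour exposure period. The concentration for 50% growth inhibition is given as GI50.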 Activity calls are given as the source filed them. Cut-off read from the data, not from the text of the source: active = GI50 up to about 1.1 µM and inactive = higher.

Turning to `C=CCC12CC(=O)CCC1CC(=O)C2` (stereo not given), the GI50 is > 100 µM (inactive) in the assay on A549; > 100 µM (inactive) in the assay on ACHN; greater than 100 µM in the assay on HCT-15; > 100 µM (inactive) with IGROV-1; > 100 µM (inactive) in the assay on M14; > 100 µM (inactive) in the assay on NCI-H460. For the same compound, the GI50 with NCI-H522, in the assay with OVCAR-3, in the assay on OVCAR-8, in the assay on RPMI-8226, with SF-539 and in the assay with SK-MEL-5 was > 100 µM (inactive) in each case. Moreover, in the assay on SNB-75, the GI50 is > 100 µM (inactive).

Consider `CCOC(=O)C1=C(C)N(NC(=O)OC)C2(N)N(NC(=O)OC)C(C)=C(C(=O)OCC)C12C#N` (stereo not given), for which the GI50 with A549 is > 100 µM (inactive); in the assay on ACHN, > 100 µM (inactive); in the assay on EKVX it was > 100 µM (inactive); in the assay with HCT-15 it was greater than 100 µM; in the assay on HT-29 it was > 100 µM (inactive); in the assay with IGROV-1 it was > 100 µM (inactive). The GI50 with M14, with NCI-H460, in the assay with NCI-H522, with OVCAR-3, in the assay with OVCAR-8 and in the assay with RPMI-8226 was > 100 µM (inactive) in each case. Also, the GI50 in the assay on SF-539, in the assay on SK-MEL-5 and in the assay on SNB-75 was > 100 µM (inactive) each time.

As for `C[C@H](NC(=O)OC1C2C=CC(O)C1CC2)c1ccccc1` (stereo not given in full), the GI50 in the assay with A549 is > 100 µM (inactive); with ACHN it was > 100 µM (inactive); in the assay with EKVX, > 100 µM (inactive); with HCT-15, 13.1 µM; with HT-29, > 10 µM (inactive); in the assay on IGROV-1 it was > 100 µM (inactive). The GI50 is 31.1 µM (inactive) with M14; > 100 µM (inactive) in the assay on NCI-H23; 80 µM (inactive) with NCI-H460; > 100 µM (inactive) with NCI-H522; > 100 µM (inactive) in the assay with OVCAR-3; > 100 µM (inactive) in the assay with OVCAR-8. For the same compound, the GI50 in the assay on RPMI-8226 is 22.4 µM (inactive); in the assay on SF-539, > 100 µM (inactive); in the assay with SK-MEL-5, > 100 µM (inactive); with SNB-75 it was > 100 µM (inactive).

Consider `Cc1ccc(C2C(Cl)C(=O)N2n2cnc3ccccc3c2=O)cc1` (stereo not given), for which the GI50 in the assay on A549 is > 100 µM (inactive); in the assay with ACHN it was > 100 µM (inactive); in the assay with EKVX, 26.5 µM (inactive); in the assay on HCT-15 it was greater than 100 µM; in the assay on HT-29 it was > 100 µM (inactive); in the assay on IGROV-1, > 100 µM (inactive). In addition, the GI50 with M14 was > 100 µM (inactive); with NCI-H23 it was > 100 µM (inactive); in the assay with NCI-H460 it was > 100 µM (inactive); in the assay with NCI-H522, > 100 µM (inactive); with OVCAR-3, 81.1 µM (inactive); with OVCAR-8, > 100 µM (inactive). Besides, the GI50 was 37.3 µM (inactive) in the assay on RPMI-8226, 82.2 µM (inactive) with SK-MEL-5 and 91.6 µM (inactive) in the assay with SNB-75.

For `O=C(/C=C/C1C(=O)NC(=O)NC1=O)CC(=O)C(=O)Nc1cc(Cl)c(Cl)cc1Cl`, the GI50 was > 100 µM (inactive) with A549; > 100 µM (inactive) with ACHN; > 100 µM (inactive) with EKVX; greater than 100 µM with HCT-15; > 100 µM (inactive) in the assay on HT-29; > 100 µM (inactive) in the assay on IGROV-1. The GI50 with M14, with NCI-H23, in the assay with NCI-H460, in the assay with NCI-H522, in the assay on OVCAR-3 and in the assay with OVCAR-8 was > 100 µM (inactive) throughout. For the same compound, the GI50 in the assay on RPMI-8226, with SF-539, with SK-MEL-5 and in the assay on SNB-75 was > 100 µM (inactive) each time.
